Assay results from patent US12534477B2, “Compound having KHK inhibitory effect” (HANGZHOU ZHONGMEIHUADONG PHARMACEUTICAL CO., LTD., priority 2019, dated 2026).
Read-outs that look alike come from different tables or passages of the source.

How the values were obtained:
[1] = Pharmacokinetic evaluation in SD rats; type: in vivo; conditions: rat, plasma; for clearance: 1 mg/kg, read-out: Clearance rate; for clearance / bioavailability: IV 1 mpk; for AUC / bioavailability: PO 3 mpk; for AUC: read-out: Integral concentration AUC for PO; for half-life: IV 1 mpk and PO 3 mpk study, read-out: Half-life T1/2 (converted); for bioavailability: read-out: Bioavailability F
Description: In vivo pharmacokinetics of compounds in SD rats were tested.
Pharmacokinetic profiles in rodents following intravenous and oral administration of the compounds were tested by standard protocols. In the experiment, candidate compounds were formulated as clear solutions or homogeneous suspensions, and were administered to rats by single intravenous injection (IV, 1 mpk) and oral administration (PO, 3 mpk). The vehicle for intravenous injection was a certain proportion of PEG400 in water, and the vehicle for oral administration was a certain proportion of methylcellulose and Tween 80 in water. Whole blood was collected, and plasma was prepared. Drug concentration was analyzed by LC-MS/MS, and pharmacokinetic parameters were calculated by Phoenix WinNonlin software.

CYP3A4 = CYP3A4 (Homo sapiens (Human), UniProt P08684); assay: Inhibitory activity on human liver microsomal cytochrome P450 isozymes; type: in vitro ADME; conditions: human liver microsomes
CYP3A4, sequence (P08684 whole entry): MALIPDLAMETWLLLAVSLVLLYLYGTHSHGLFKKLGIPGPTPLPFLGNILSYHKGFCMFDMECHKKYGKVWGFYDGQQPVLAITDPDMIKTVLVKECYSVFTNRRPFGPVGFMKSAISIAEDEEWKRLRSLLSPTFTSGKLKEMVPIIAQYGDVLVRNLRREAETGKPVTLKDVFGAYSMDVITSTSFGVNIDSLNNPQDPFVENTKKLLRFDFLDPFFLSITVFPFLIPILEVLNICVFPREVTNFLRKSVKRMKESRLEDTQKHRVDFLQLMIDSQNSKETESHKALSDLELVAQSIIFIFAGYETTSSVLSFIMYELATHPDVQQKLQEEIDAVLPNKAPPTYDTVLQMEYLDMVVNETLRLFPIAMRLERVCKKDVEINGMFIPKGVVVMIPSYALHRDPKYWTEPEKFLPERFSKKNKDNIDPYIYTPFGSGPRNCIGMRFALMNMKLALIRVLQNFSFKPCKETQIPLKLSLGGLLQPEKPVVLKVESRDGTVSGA
Description: (§1) The inhibitory effect of test compounds on the activity of human hepatic microsomal cytochrome P450 isozymes (CYP1A2, CYP2C9, CYP2C19, CYP2D6 and CYP3A4) was determined.
(§2) First, the test compound (10 mM) was diluted in gradient to prepare working solutions (100×final concentration) with working solution concentrations: 5, 1.5, 0.5, 0.15, 0.05, 0.015, 0.005 mM, respectively, and at the same time, working solutions of each positive inhibitor of P450 isozymes (CYP1A2, CYP2C9, CYP2C19, CYP2D6 and CYP3A4) and its specific substrate mixture were prepared. Human liver microsomes frozen in a −80° C. refrigerator were thawed on ice, and diluted with PB (phosphate buffer) after all the human liver microsomes were dissolved, to prepare a working solution at a certain concentration (0.253 mg/mL). 20 μl substrate mixture was added to the reaction plate (20 μL PB was added to the Blank wells) while 158 μL human liver microsome working solution was added to the reaction plate which was placed on ice for later use. At this time, 2 μL of each concentration of the test compound (N=1) and the specific inhibitor (N=2) were added to the corresponding wells, and the corresponding organic solvents were added to the groups without inhibitors (the test compound or the positive inhibitor) as control samples (1:1 DMSO:MeOH for the test compound control sample, and 1:9 DMSO:MeOH for the positive control sample). After pre-incubation in 37° C. water bath for 10 min, 20 μL coenzyme factor (NADPH) solution was added to the reaction plate, and incubated in 37° C. water bath for 10 min. 400 μL cold acetonitrile solution (200 ng/mL Tolbutamide and Labetalol as the internal standard) was added to stop the reaction. The reaction plate was placed on a shaker and shaken for 10 min. The mixture was centrifuged at 4,000 rpm for 20 min, and 200 μl the supernatant was added to 100 μL water for sample dilution. Finally, the plate was sealed, shaken, mixed well and detected by LC/MS/MS.

CYP2D6 = CYP2D6 (Homo sapiens (Human), UniProt P10635); assay: as above; type: in vitro ADME; conditions: human liver microsomes
CYP2D6, sequence (P10635 whole entry): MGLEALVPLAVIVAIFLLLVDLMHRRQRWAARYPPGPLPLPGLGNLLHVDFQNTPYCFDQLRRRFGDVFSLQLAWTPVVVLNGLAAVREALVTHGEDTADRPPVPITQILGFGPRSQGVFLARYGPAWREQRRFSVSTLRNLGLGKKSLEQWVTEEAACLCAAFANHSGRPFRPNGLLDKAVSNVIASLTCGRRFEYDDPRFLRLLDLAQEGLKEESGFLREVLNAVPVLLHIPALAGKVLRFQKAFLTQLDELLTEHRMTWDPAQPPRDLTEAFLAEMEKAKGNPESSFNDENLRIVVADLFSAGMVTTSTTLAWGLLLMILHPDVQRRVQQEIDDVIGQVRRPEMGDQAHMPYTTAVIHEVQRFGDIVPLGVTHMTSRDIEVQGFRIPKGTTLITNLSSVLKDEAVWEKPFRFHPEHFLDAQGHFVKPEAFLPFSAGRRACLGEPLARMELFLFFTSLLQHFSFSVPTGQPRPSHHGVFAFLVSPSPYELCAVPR
Description: as §1, §2

CYP2C9 = CYP2C9 (Homo sapiens (Human), UniProt P11712); assay: as above; type: in vitro ADME; conditions: human liver microsomes
CYP2C9, sequence (P11712 whole entry): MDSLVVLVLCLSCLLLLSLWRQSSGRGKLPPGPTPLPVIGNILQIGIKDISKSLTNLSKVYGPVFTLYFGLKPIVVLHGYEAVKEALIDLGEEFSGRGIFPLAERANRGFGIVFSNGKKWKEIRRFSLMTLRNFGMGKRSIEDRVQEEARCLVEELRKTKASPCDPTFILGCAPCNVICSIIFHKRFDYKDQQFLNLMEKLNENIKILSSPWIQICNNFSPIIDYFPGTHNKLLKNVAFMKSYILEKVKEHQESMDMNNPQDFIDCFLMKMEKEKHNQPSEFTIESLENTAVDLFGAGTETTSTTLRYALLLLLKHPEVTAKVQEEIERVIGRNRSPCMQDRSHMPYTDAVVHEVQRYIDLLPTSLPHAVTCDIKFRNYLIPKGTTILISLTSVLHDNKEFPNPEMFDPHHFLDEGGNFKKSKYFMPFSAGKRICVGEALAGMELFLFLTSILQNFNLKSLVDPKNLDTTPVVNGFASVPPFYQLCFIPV
Description: as §1, §2

CYP2C19 = CYP2C19 (Homo sapiens (Human), UniProt P33261); assay: as above; type: in vitro ADME; conditions: human liver microsomes
CYP2C19, sequence (P33261 whole entry): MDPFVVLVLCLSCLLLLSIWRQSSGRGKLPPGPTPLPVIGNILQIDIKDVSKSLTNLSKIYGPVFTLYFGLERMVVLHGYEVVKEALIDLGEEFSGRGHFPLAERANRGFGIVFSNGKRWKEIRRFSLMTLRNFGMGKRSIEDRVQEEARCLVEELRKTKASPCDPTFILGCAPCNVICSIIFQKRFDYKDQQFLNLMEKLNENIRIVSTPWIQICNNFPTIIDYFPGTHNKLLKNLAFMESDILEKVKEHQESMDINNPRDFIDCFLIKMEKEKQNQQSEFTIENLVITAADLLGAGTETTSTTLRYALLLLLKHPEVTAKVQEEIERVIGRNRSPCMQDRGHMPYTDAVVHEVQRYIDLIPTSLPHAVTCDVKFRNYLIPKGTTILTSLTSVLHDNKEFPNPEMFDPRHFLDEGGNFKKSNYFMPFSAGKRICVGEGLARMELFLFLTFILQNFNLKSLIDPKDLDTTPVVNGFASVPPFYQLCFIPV
Description: as §1, §2

CYP1A2 = CYP1A2 (Homo sapiens (Human), UniProt P05177); type: in vitro ADME; conditions: microsomes
CYP1A2, sequence (P05177 whole entry): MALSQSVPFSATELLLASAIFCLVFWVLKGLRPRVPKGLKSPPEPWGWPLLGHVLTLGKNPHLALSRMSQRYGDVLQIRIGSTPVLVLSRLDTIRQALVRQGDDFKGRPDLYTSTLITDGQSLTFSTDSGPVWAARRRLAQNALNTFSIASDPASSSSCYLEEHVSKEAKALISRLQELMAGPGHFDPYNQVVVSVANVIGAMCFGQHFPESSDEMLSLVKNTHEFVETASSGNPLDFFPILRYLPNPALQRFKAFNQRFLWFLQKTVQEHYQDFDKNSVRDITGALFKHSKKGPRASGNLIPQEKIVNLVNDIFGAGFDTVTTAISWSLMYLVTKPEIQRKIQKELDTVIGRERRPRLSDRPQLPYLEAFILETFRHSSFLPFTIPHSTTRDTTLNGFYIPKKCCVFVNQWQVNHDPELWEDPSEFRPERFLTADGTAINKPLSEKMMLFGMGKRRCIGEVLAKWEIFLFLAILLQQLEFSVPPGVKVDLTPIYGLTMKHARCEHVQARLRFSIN
Description: as §1, §2

[2] = tested on: fructose metabolism in mice; assay: Acute fructose feeding experiment in mice; type: in vivo; conditions: compound 30 mpk, oral fructose 1 g/kg
Description: The effect of test compounds on the fructose content in mice with high fructose intake was investigated.
All animals were acclimated for one week in an animal house, fed with normal chow and fasted for 16 hours before being given fructose.
1) The experiment began at −0.5 hr. A control group was given a certain volume of vehicle (a certain proportion of methylcellulose and Tween 80 in water), and an experimental group was given a certain dose of a solution of the compound (the administered volume was consistent with the vehicle).
2) 0.5 hour later and before administration of a fructose solution, a blood sample was collected at 0 hr, followed by oral administration of 1 g/kg of an aqueous fructose solution.
3) After the administration of fructose, blood samples were collected from saphenous vein of mice at 0.25, 0.5, 1, 2, 3 and 8 hr, and fructose concentration was analyzed by LC-MS/MS.

[3] = Liver-blood ratio, tissue distribution in rats; type: in vivo, SD rats; conditions: PO 1 mpk
Description: Tissue distribution of compounds in SD rats was tested.
In the experiment, candidate compounds were formulated as clear solutions and administered to rats in a single oral dose (PO, 1 mpk). The vehicle for oral administration was a certain proportion of methylcellulose and Tween 80 in water. Whole blood was collected at a certain time and plasma was prepared, and tissues were collected at the corresponding time and prepared into tissue homogenates. Drug concentration was analyzed by LC-MS/MS, and pharmacokinetic parameters were calculated by Phoenix WinNonlin software.

[4] = target: Recombinant Human Ketohexokinase (KHK) (Homo sapiens (Human), UniProt P50053); assay: Ketohexokinase assay (KHK assay), ADP-Glo; type: biochemical
Recombinant Human Ketohexokinase (KHK), sequence (P50053 whole entry): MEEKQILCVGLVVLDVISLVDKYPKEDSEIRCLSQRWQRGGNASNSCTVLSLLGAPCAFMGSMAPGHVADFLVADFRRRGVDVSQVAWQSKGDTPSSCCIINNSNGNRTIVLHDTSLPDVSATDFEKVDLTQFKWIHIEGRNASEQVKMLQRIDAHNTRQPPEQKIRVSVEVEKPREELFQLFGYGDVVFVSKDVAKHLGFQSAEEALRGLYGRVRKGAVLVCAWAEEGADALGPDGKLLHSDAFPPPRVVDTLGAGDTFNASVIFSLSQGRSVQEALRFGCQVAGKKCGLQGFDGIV
Description: • 1. EnVision multilabel reader, Perkin Elmer; • 2. OptiPlate 384-well microplate, Perkin Elmer, Cat. No. 6007290; • 3. Recombinant Human Ketohexokinase (KHK), R&D Cat. No.: 8177-HK-020, Lot No.: DDFK0117092; • 4. Fructose (D(−)-Fructose), SCR Cat. No.: 36003034; and • 5. ADP-Glo kinase assay kit, Promega_Cat. No.: V9101.
1. preparation of Dilution Buffer containing 50 mM hydroxyethylpiperazine […] (Hepes), 140 mM KCl, 3.5 mM MgCl2, and 0.01% bovine serum albumin (BSA), pH 7.4.
2. A working solution of ketohexokinase at 2.5 times concentration was prepared with Dilution Buffer, with 50 nM ketohexokinase and 12.5 mM fructose.
3. A working solution of adenosine triphosphate (ATP) at 2.5 times concentration was prepared with Dilution Buffer, with a concentration of 250 μM.
4. Each compound was diluted starting at a concentration of 500 μM, 3-fold diluted for 9 concentration points. The final concentration of the compound in the reaction system started from 10 μM and the final concentration of dimethyl sulfoxide (DMSO) was 2%.
5. A 96-well plate was prepared as a reaction plate, and was incubated at room temperature for 5 min after adding 6 μL ketohexokinase working solution at 2.5 times concentration to each well and further adding 3 μL compound working solution to each well.
6. The first well of each row was a positive control for a compound, i.e. the same volume of the buffer was added to replace the compound and ketohexokinase. The last well was a negative control for the compound, i.e. the same volume of Dilution Buffer was added instead of the compound.
7. 6 μL ATP working solution was added to each well in a 96-well reaction plate to initiate the kinase reaction. The kinase reaction was incubated in a constant temperature heater at 28° C. for 1 h.
1. A384 plate was prepared as a detection plate, and firstly 5 μL ADP-Glo reagent was added.
2. 5 μL kinase reaction mixture from the reaction plate was added to each well and incubated in a constant temperature heater at 28° C. for 30 min.
3. 10 μL kinase detection reagent was added to each well and incubated in a constant temperature heater at 28° C. for 30 min.
4. The detection plate was placed in an EnVision multilabel reader to read the chemiluminescent signal.

[5] = 1.5 h, read-out: Brain tissue concentration
[6] = 1.5 h, read-out: Liver tissue concentration
[7] = 2.0 h, read-out: Brain tissue concentration
[8] = 2.0 h, read-out: Liver tissue concentration
[9] = 6.0 h, read-out: Liver tissue concentration
[10] = SD, rat, liver, 1 mg/kg, 1.5 h, read-out: Liver tissue concentration
[11] = SD, rat, liver, 1 mg/kg, 2.0 h, read-out: Liver tissue concentration
[12] = SD, rat, liver, 1 mg/kg, 6.0 h, read-out: Liver tissue concentration
[13] = SD, rat, liver/plasma, 1 mg/kg, 1.5 h, read-out: Liver-blood ratio
[14] = SD, rat, liver/plasma, 1 mg/kg, 2.0 h, read-out: Liver-blood ratio
[15] = SD, rat, liver/plasma, 1 mg/kg, 6.0 h, read-out: Liver-blood ratio
[16] = SD, rat, plasma, 1 mg/kg, 1.5 h, read-out: Plasma concentration
[17] = SD, rat, plasma, 1 mg/kg, 2.0 h, read-out: Plasma concentration
[18] = SD, rat, plasma, 1 mg/kg, 6.0 h, read-out: Plasma concentration

Compound	clearance [1] [mL/min/kg]	AUC ([1]; 3 mg/kg) [µM·h]	half-life [1] [h]	bioavailability [1] [%]	IC50 (CYP3A4) [µM]	IC50 (CYP2D6) [µM]	IC50 (CYP2C9) [µM]	IC50 (CYP2C19) [µM]	IC50 (CYP1A2) [µM]	AUC of integral fructose concentration for dosed group [2] [nM·h]	AUC of integral fructose concentration of dosed group/AUC of Integral fructose concentration of control group [2]	Brain-blood ratio ([3]; 1.5 h)	Liver-blood ratio ([3]; 1.5 h)	Plasma concentration ([3]; 1.5 h) [nM]	concentration at 6 h [3, 5] [nM]	concentration at 1.5 h [3, 6] [nM]	Brain-blood ratio ([3]; 2.0 h)	Liver-blood ratio ([3]; 2.0 h)	Plasma concentration ([3]; 2.0 h) [nM]	concentration at 6 h [3, 7] [nM]	also measured
C[C@H]1CCN1c1nc(N2CC3(C[C@H]3C(=O)O)C2)c2c(n1)C(F)(F)CC2 [WX043]	5.37	12	5.83	70	> 50	> 50	> 50	> 50	> 50	3504	13.3	0.016	20.0	2025	30.6	38250	0.014	30.0	916	13.1	concentration at 1.5 h [3, 8]: 27800 nM; Liver-blood ratio ([3]; 6.0 h): 81.5; Plasma concentration ([3]; 6.0 h): 246 nM; concentration at 1.5 h [3, 9]: 19800 nM
C[C@H]1CCN1c1nc(N2C[C@@H]3[C@@H](CC(=O)O)[C@@H]3C2)c2ncsc2n1 [WX001]	1.04	163	3.12		> 50	> 50	> 50	> 50													bioavailability ([1]; 3 mg/kg): 158%; IC50 [4]: 0.18 µM; IC50 (CYP1A2; human, 10 min): > 50 µM; concentration at 1.5 h ([3]; SD, rat, brain, 1 mg/kg, 1.5 h, read-out: Brain tissue concentration): 72.8 nM; concentration at 2 h ([3]; SD, rat, brain, 1 mg/kg, 2.0 h, read-out: Brain tissue concentration): 162 nM; concentration at 6 h ([3]; SD, rat, brain, 1 mg/kg, 6.0 h, read-out: Brain tissue concentration): 91.5 nM; Kp at 1.5 h ([3]; SD, rat, brain/plasma, 1 mg/kg, 1.5 h, read-out: Brain-blood ratio): 0.015; Kp at 2 h ([3]; SD, rat, brain/plasma, 1 mg/kg, 2.0 h, read-out: Brain-blood ratio): 0.017; Kp at 6 h ([3]; SD, rat, brain/plasma, 1 mg/kg, 6.0 h, read-out: Brain-blood ratio): 0.02; concentration at 1.5 h [3, 10]: 2440 nM; concentration at 2 h [3, 11]: 4270 nM; concentration at 6 h [3, 12]: 1790 nM; Kp at 1.5 h [3, 13]: 0.491; Kp at 2 h [3, 14]: 0.469; Kp at 6 h [3, 15]: 0.549; concentration at 1.5 h [3, 16]: 4880 nM; concentration at 2 h [3, 17]: 9090 nM; concentration at 6 h [3, 18]: 3320 nM
C[C@H]1CCN1c1nc(N2CC3(C[C@@H]3C(=O)O)C2)c2c(n1)C(F)(F)CC2 [WX042]	8.13	20.5	2.27	176	> 50	> 50	> 50	> 50	> 50	3400	12.9	0.0375	9.53	3314	76.2	19900	0.0211	6.78	3045	62.2	concentration at 1.5 h [3, 8]: 20600 nM; Liver-blood ratio ([3]; 6.0 h): 26.2; Plasma concentration ([3]; 6.0 h): 259 nM; concentration at 1.5 h [3, 9]: 6710 nM
C[C@H]1CCN1c1nc(Nc2ccc(CC(=O)O)cc2)c2ccsc2n1 [WX006]	1.05	39.5	2.63		> 50	> 50	> 50	> 50													bioavailability ([1]; 3 mg/kg): 44%; IC50 [4]: 0.025 µM; IC50 (CYP1A2; human, 10 min): > 50 µM; concentration at 1.5 h [3, 10]: 2420 nM; concentration at 2 h [3, 11]: 2860 nM; concentration at 6 h [3, 12]: 2180 nM; Kp at 1.5 h [3, 13]: 1.2; Kp at 2 h [3, 14]: 0.92; Kp at 6 h [3, 15]: 1.25; concentration at 1.5 h [3, 16]: 2010 nM; concentration at 2 h [3, 17]: 3100 nM; concentration at 6 h [3, 18]: 1780 nM
